Assay results from US20220257767A1, “IONIC LIQUIDS FOR DRUG DELIVERY” (PRESIDENT AND FELLOWS OF HARVARD COLLEGE, priority 2019, published 2022).
Values after ≈ are worked out from the molar mass of the structure shown. “Also recorded” adds a separate entry of the source.

tested on: porcine skin; experiment: not given; conditions: not given

| Acarbose: Rank | Average Rank | Ruxolitinib: Rank | delivery/transport of acarbose into skin (in words) | delivery/transport of ruxolitinib into skin (in words) | Compound |
| --- | --- | --- | --- | --- | --- |
| 2 | 5 | 8 |  |  | Choline geranate [CAGE] [listing 1 of 2 here] |
| 1 | 1 | 3 | highest delivery efficacy | highest delivery efficacy | Choline geranate [CAGE] [listing 2 of 2 here] |

tested on: porcine skin; experiment: Skin penetration studies using porcine skin in Franz diffusion cells, drug quantified by HPLC; conditions: 24 h, listed as pure geranic acid

| Compound | delivery/transport of acarbose into skin (in words) | delivery/transport of ruxolitinib into skin (in words) |
| --- | --- | --- |
| CC(C)=CCC/C(C)=C/C(=O)O [Geranic Acid] | no significant transport; also recorded: did not yield a noticeable skin flux | no significant transport; also recorded: did not yield a noticeable skin flux |

tested on: not given; experiment: not given; conditions: exemplary anions, Table 5; cited from earlier work

| Compound | LogP | pKa |
| --- | --- | --- |
| CC(C)C(=O)O [2-methylpropanoic acid] | 0.73 |  |
| O=C(O)CCCC(=O)O [Glutaric Acid] | −0.29 | 4.34 |
| CCCCCCC(O)C(=O)O (stereo not drawn) [2-hydroxyoctanoic acid] | 1.8 | 4.42 |
| CCCCC(CC)COS(=O)(=O)[O-].[Na+] (stereo not drawn) [2-ethylhexyl sulfate] | 3.10 |  |
| O=C(O)CCCC[C@@H]1CCSS1 [(R)-5-(1,2-dithiolan-3-yl)pentanoic acid] |  | 5.10 |
| CCCCC/C=C/C(=O)O [Octenoic Acid, trans-2-octenoic acid] | 2.9 | 5.05 |
| CC(C)=CCC/C(C)=C/C(=O)O [Geranic Acid] | 2.72 | 5.26 |
| Decenoic Acid | 4.02 | 5.03 |
| COc1cc(/C=C/C(=O)O)ccc1O [(E)-3-(4-hydroxy-3-methoxy-phenyl)prop-2-enoic acid] |  | 4.42 |
| CCC(O)CCCCCCC(=O)O (stereo not drawn) [8-hydroxycapric acid] | 2.2 |  |
| O=C(O)c1ccccc1O [Salicylic Acid] | 2.2 |  |
| O=C(O)CCCCCCCC(=O)O [Nonanedioic Acid] |  | 4.55 |
| CN(C)CCO [2-(dimethylamino)ethanol] |  | 9.3 |
| O=C(O)C(O)c1ccccc1 (stereo not drawn) [Hydroxyl(phenyl)acetic acid] | 1.2 | 3.41 |
| CC(C)=CCCC(C)CC(=O)O (stereo not drawn) [Citronellic Acid, 3,7-dimethyl-6-octenoic acid] | 2.8 | 5.19 |
| Hexenoic Acid | 1.8 | 5.13 |
| CCCCCCCC(=O)O [Octanoic Acid] | 3.01 | 4.895 |

tested on: not given; experiment: not given; conditions: model drugs; cited from earlier work

| Compound | Log P |
| --- | --- |
| N#CC[C@H](C1CCCC1)n1cc(-c2ncnc3[nH]ccc23)cn1 [ruxolitinib] | 2.9 |

tested on: not listed separately; experiment: Solubility of the model drugs in PBS and in CAGE variants; type: physicochemical; conditions: PBS, aqueous buffer

| Compound | solubility [µg/mL] |
| --- | --- |
| C[C@H]1O[C@H](O[C@H]2[C@H](O)[C@@H](O)[C@@H](O[C@H]3[C@H](O)[C@@H](O)C(O)O[C@@H]3CO)O[C@@H]2CO)[C@H](O)[C@@H](O)[C@@H]1N[C@H]1C=C(CO)[C@@H](O)[C@H](O)[C@H]1O (stereo partly drawn) [Acarbose, acarbose] | ≥ 1000 |
| N#CC[C@H](C1CCCC1)n1cc(-c2ncnc3[nH]ccc23)cn1 [ruxolitinib] | 200 (≈ 653 µM) |
